Legend:
[1] = tested on: B16–F10 murine melanoma cells; test: MTT cell proliferation assay, B16–F10 cells; format: cell-based; details: Mus musculus, 72 h treatment, untreated control = 100% viability, read-out: IC50, growth inhibition of B16–F10 cells
Experimental: (§1) These studies were performed using a 3-(4,5-dimethylthiazol-2-yl)-2,5-diphenyltetrazolium bromide (MTT) assay, with increasing concentration levels of each compound (0–200 μg/mL). Cell viability was determined after treatment for 72 h, by absorption of a formazan dye.
(§2) […] ATTC HTB-38), Hep G2 human hepatocyte carcinoma cells (ECACC 85011430), nontumor human epithelial lung fibroblast cells HPF (ScienCell catalog (cat.) no. 3300), nontumor rat ileum cells IEC-18 (ECACC no. 88011801), and nontumor human embryo liver cells (ECACC 89121403) were cultured in DMEM medium supplemented with 2 mM glutamine, 10% heat-inactivated fetal bovine serum (FCS), 10.000 units/mL penicillin, and […]. These cells were incubated at 37 °C in an atmosphere of 5% CO2 and 95% humidity. The culture media were changed every 48 h, and the confluent cultures were separated with a trypsin solution (0.25% EDTA). Subconfluent monolayer cells were used in all experiments. All cell lines used were provided by the cell bank of the University of Granada (Spain).
(§3) The effect of the synthesized compounds on the viability of tumor cells was assessed using an MTT assay, based on the ability of living cells to cleave the tetrazolium ring, thus producing formazan, which absorbs at 570 nm. […] For an evaluation of the cytotoxic effects of these compounds, the cells were seeded in 96-well plates at an initial density of 5 × 10^3 B16–F10 cells, 6 × 10^3 HT29 cells, 15 × 10^3 Hep G2 cells, 8 × 10^3 HPF cells, 15 × 10^3 IEC-18 cells, and 11 × 10^3 WRL68 cells, per well. After incubation for 24 h, the cells were treated with the synthesized compounds in triplicate, at different concentrations (0–200 μg/mL), and incubated for 72 h. Thereafter, 100 μL of MTT solution (0.5 mg/mL) were added to each well. After 2 h of incubation, the cells were washed twice with phosphate buffered saline (PBS), and the formazan was resuspended in 100 μL of DMSO. Relative cell viability, with respect to untreated control cells, was measured by absorbance at 550 nm on an ELISA plate reader (Tecan Sunrise MR20-301, TECAN, Austria). […] These experiments were measured and compared to the control after 72 h of treatment.

[2] = tested on: Hep G2 human hepatocyte carcinoma cells; test: MTT cell proliferation assay, Hep G2 cells; format: cell-based; details: HepG2, 72 h treatment, untreated control = 100% viability, read-out: IC50, growth inhibition of Hep G2 cells
Experimental: as §1, §2, §3

[3] = tested on: HT29 human colon adenocarcinoma cells; test: MTT cell proliferation assay, HT29 cells; format: cell-based; details: HT-29, 72 h treatment, untreated control = 100% viability, read-out: IC50, growth inhibition of HT29 cells
Experimental: as §1, §2, §3

[4] = tested on: B16-F10, HT29, and Hep G2 cancer cell lines; test: MTT assay, statements over the three cancer cell lines; format: cell-based; details: 72 h, read-out: IC50 (cytotoxicity), cell line not distinguished
Experimental: as §1, with “dye. […] In these three cancer cell lines, the concentration of the compounds that reduced the response by half (IC50) was determined (Table 1).” for “dye.”
The effect of the synthesized compounds on the viability of tumor cells was assessed using an MTT assay, based on the ability of living cells to cleave the tetrazolium ring, thus producing formazan, which absorbs at 570 nm. The MA conjugates (1–12) were assayed against the selected cancer cell lines. For an evaluation of the cytotoxic effects of these compounds, the cells were seeded in 96-well plates at an initial density of 5 × 10^3 B16–F10 cells, 6 × 10^3 HT29 cells, 15 × 10^3 Hep G2 cells, 8 × 10^3 HPF cells, 15 × 10^3 IEC-18 cells, and 11 × 10^3 WRL68 cells, per well. After incubation for 24 h, the cells were treated with the synthesized compounds in triplicate, at different concentrations (0–200 μg/mL), and incubated for 72 h. […] Relative cell viability, with respect to untreated control cells, was measured by absorbance at 550 nm on an ELISA plate reader (Tecan Sunrise MR20-301, TECAN, Austria). […] These experiments were measured and compared to the control after 72 h of treatment.

| Structure (SMILES) | IC50 [1] [µM] | IC50 [3] [µM] | melting point [°C] | IC50 [2] [µM] | IC50 [4] [µM] |
| --- | --- | --- | --- | --- | --- |
| O=C(O)c1cc2ccccc2oc1=O [C3CA, coumarin-3-carboxylic acid, reference compound] | > 10 | > 10 |  | > 10 |  |
| CC1(C)CC[C@]2(C(=O)NCCCCCCNC(=O)c3cc4ccccc4oc3=O)CC[C@]3(C)C(=CC[C@@H]4[C@@]5(C)C[C@@H](O)[C@H](O)C(C)(C)[C@@H]5CC[C@]43C)[C@@H]2C1 [Compound 2, 2α,3β-Dihydroxy-N-(6′-(2″-oxo-2″H-chromene-3″-carboxamido)hexyl)olean-12-en-28-amide] | > 10 | > 10 | 73 to 75 | > 10 |  |
| CC1(C)CC[C@]2(C(=O)NCCCCCCCCCCNC(=O)c3cc4ccccc4oc3=O)CC[C@]3(C)C(=CC[C@@H]4[C@@]5(C)C[C@@H](O)[C@H](O)C(C)(C)[C@@H]5CC[C@]43C)[C@@H]2C1 [Compound 3, 2α,3β-Dihydroxy-N-(10′-(2″-oxo-2″H-chromene-3″-carboxamido)decyl)olean-12-en-28-amide] | > 10 | > 10 | 86 to 88 | > 10 |  |
| CC1(C)CC[C@]2(C(=O)NCCCCCCNC(=O)Cc3cc(=O)oc4cc(O)ccc34)CC[C@]3(C)C(=CC[C@@H]4[C@@]5(C)C[C@@H](O)[C@H](O)C(C)(C)[C@@H]5CC[C@]43C)[C@@H]2C1 [Compound 5, 2α,3β-Dihydroxy-N-(6′-(2″-(7‴-hydroxy-2‴-oxo-2‴H-chromen-4‴-yl)acetamido)hexyl)olean-12-en-28-amide] | > 10 | > 10 | 139 to 141 | > 10 |  |
| CC1(C)CC[C@]2(C(=O)NCCCCCCCCCCNC(=O)Cc3cc(=O)oc4cc(O)ccc34)CC[C@]3(C)C(=CC[C@@H]4[C@@]5(C)C[C@@H](O)[C@H](O)C(C)(C)[C@@H]5CC[C@]43C)[C@@H]2C1 [Compound 6, 2α,3β-Dihydroxy-N-(10′-(2″-(7‴-hydroxy-2‴-oxo-2‴H-chromen-4‴-yl)acetamido)decyl)olean-12-en-28-amide] | > 10 | > 10 | 120 to 122 | > 10 |  |
| CC1(C)CC[C@]2(C(=O)NCCCCCCNC(=O)/C=C/c3ccc(O)cc3)CC[C@]3(C)C(=CC[C@@H]4[C@@]5(C)C[C@@H](O)[C@H](O)C(C)(C)[C@@H]5CC[C@]43C)[C@@H]2C1 [Compound 8, 2α,3β-Dihydroxy-N-(6′-((E)-3″-(4‴-hydroxyphenyl)acrylamido)hexyl)olean-12-en-28-amide] | > 10 | > 10 | 76 to 78 | > 10 |  |
| CC1(C)CC[C@]2(C(=O)NCCCCCCCCCCNC(=O)/C=C/c3ccc(O)cc3)CC[C@]3(C)C(=CC[C@@H]4[C@@]5(C)C[C@@H](O)[C@H](O)C(C)(C)[C@@H]5CC[C@]43C)[C@@H]2C1 [Compound 9, 2α,3β-Dihydroxy-N-(10′-((E)-3″-(4‴-hydroxyphenyl)acrylamido)decyl)olean-12-en-28-amide] | > 10 | > 10 | 104 to 106 | > 10 |  |
| CC1(C)CC[C@]2(C(=O)O)CC[C@]3(C)C(=CC[C@@H]4[C@@]5(C)C[C@@H](O)[C@H](O)C(C)(C)[C@@H]5CC[C@]43C)[C@@H]2C1 [MA (I), 2α,3β-dihydroxyolean-12-en-28-oic acid, reference compound] | > 10 | > 10 |  | > 10 |  |

More lines, main results first:

| IC50 [1] [µM] | IC50 [3] [µM] | melting point [°C] | Structure (SMILES) | IC50 [2] [µM] | IC50 [4] [µM] |
| --- | --- | --- | --- | --- | --- |
| > 10 | > 10 |  | Cc1cc(=O)oc2cc(NC(=O)[C@]34CCC(C)(C)C[C@H]3C3=CC[C@@H]5[C@@]6(C)C[C@@H](O)[C@H](O)C(C)(C)[C@@H]6CC[C@@]5(C)[C@]3(C)CC4)ccc12 [Compound 11, 2α,3β-dihydroxy-N-(4-methyl-2-oxo-2H-chromen-7-yl)-olean-12-en-28-amide] | > 10 | > 10 |
| > 10 | > 10 | 206 to 208 | Cc1cc(=O)oc2cc(NC(=O)[C@]34CCC(C)(C)C[C@H]3C3=CC[C@@H]5[C@@]6(C)C[C@@H](OC(=O)c7cc8ccccc8oc7=O)[C@H](OC(=O)c7cc8ccccc8oc7=O)C(C)(C)[C@@H]6CC[C@@]5(C)[C@]3(C)CC4)ccc12 [Compound 12, N-(4‴-Methyl-2‴-oxo-2‴H-chromen-7‴-yl)-2α,3β-bis((2′-oxo-2′H-chromene-3′-carbonyl)oxy)-olean-12-en-28-amide] | > 10 | > 10 |
| > 10 | > 10 |  | O=C(O)Cc1cc(=O)oc2cc(O)ccc12 [HCAA, 7-hydroxycoumarinyl-4-acetic acid, reference compound] | > 10 |  |
| > 10 | > 10 |  | O=C(O)/C=C/c1ccc(O)cc1 [PCA, p-coumaric acid, reference compound] | > 10 |  |
